Experimental data: patent US20240358693A1, “METHODS OF TREATING PAIN” (Aisa Pharma, Inc., priority 2023, published 2024)

System: participants with SSc-RP
Assay: Frequency of weekly RP attacks (all attacks; primary efficacy endpoint)
Assay type: in vivo, human
Settings: for Weekly RP Attacks, Q3 / Weekly RP Attacks Change from Baseline, Max / Weekly RP Attacks Change from Baseline, Mean / Weekly RP Attacks Change from Baseline, Median / Weekly RP Attacks Change from Baseline, Min / Weekly RP Attacks Change from Baseline, Q1 / Weekly RP Attacks Change from Baseline, Q3 / Weekly RP Attacks Percent Change from Baseline, Max / Weekly RP Attacks Percent Change from Baseline, Mean / Weekly RP Attacks Percent Change from Baseline, Median / Weekly RP Attacks Percent Change from Baseline, Min / Weekly RP Attacks Percent Change from Baseline, Q1 / Weekly RP Attacks Percent Change from Baseline, Q3 / Weekly RP Attacks, Max / Weekly RP Attacks, Mean / Weekly RP Attacks, Median / Weekly RP Attacks, Min / Weekly RP Attacks, Q1 / Weekly RP Attacks Change from Baseline, Mean (SD) / Weekly RP Attacks Percent Change from Baseline, Mean (SD) / Weekly RP Attacks, Mean (SD): all attacks, tadalafil 5 mg daily
From the text: Percent change from baseline evaluation for frequency of weekly RP attacks were or will be used as the primary efficacy variable. The sponsor-developed participant-informed diary will be used to record data. Frequency of weekly RP attacks is defined as the total number of RP attacks divided by the number of days with available diary data within the last 7 days of each dosing period then multiplied by 7. Total number of RP attacks during the last 7 days of screening period divided by the number of days with available data then multiplied by 7 will be used as baseline for the analysis of all periods. The variable will be calculated as follows:
Percentage change={(weekly RP attacks for the last 7 days of each dosing period−Baseline weekly RP attacks)/Baseline weekly RP attacks}*100%.
Absolute change=weekly RP attacks for the last 7 days of each dosing period−Baseline weekly RP attacks
Percent change from baseline evaluation for frequency of weekly RP attacks was and will be the primary efficacy endpoint. Frequency of weekly RP attacks is defined as the total number of RP attacks divided by the number of days with available diary data within the last 7 days of each dosing period then multiplied by 7. Total number of RP attacks during the last 7 days of screening period divided by the number of days with available data then multiplied by 7 will be used as baseline for the analysis of all periods.
Percent change from baseline evaluation for frequency of weekly RP attacks were the primary efficacy endpoint. Data collected in the last 7 days of each dosing period were used for this analysis. Screening assessments were used as baseline for the analysis of all periods. No multiple comparison adjustment were used to control alpha for the multiple comparisons. Mixed effects model were used for analysis of the primary endpoint according to the crossover design. Other efficacy endpoints of continuous variables were analyzed using similar methodology. For nominal data, chi-square tests were applied. Generalized Estimating Equations method were used, as appropriate, for adjusting for potential confounding factors. In addition, the final analysis assessed whether in this study of severe Raynaud's disease participants, the minimally important difference, previously concluded of 14-15 points on the 100 point RCS scale had been achieved in the cilnidipine dose group. It also recorded the percentage of participants achieving a PASS (34 point difference from baseline on a 0-100 VAS) in each treatment group.

[1] = by baseline RCS, first subgroup, cilnidipine 10 mg
[2] = by baseline RCS, first subgroup, cilnidipine 20 mg
[3] = by baseline RCS, first subgroup, pooled cilnidipine 10 mg and 20 mg
[4] = pooled cilnidipine 10 mg and 20 mg

COCCOC(=O)C1=C(C)NC(C)=C(C(=O)OC/C=C/c2ccccc2)C1c1cccc([N+](=O)[O-])c1 (stereo not shown) [Cilnidipine, cilnidipine]
Weekly RP Attacks, Q3 (excluding outliers, pooled cilnidipine 10 mg and 20 mg): 23.00
Weekly RP Attacks Change from Baseline, Max [1]: −9.0, −9.0
Weekly RP Attacks Change from Baseline, Mean [1]: −9.00
Weekly RP Attacks Change from Baseline, Median [1]: −9.00
Weekly RP Attacks Change from Baseline, Min [1]: −9.0, −9.0
Weekly RP Attacks Change from Baseline, Q1 [1]: −9.00, −9.00
Weekly RP Attacks Change from Baseline, Q3 [1]: −9.00, −9.00
Weekly RP Attacks Percent Change from Baseline, Max [1]: −28.1, −28.1%
Weekly RP Attacks Percent Change from Baseline, Mean [1]: −28.13%
Weekly RP Attacks Percent Change from Baseline, Median [1]: −28.13%
Weekly RP Attacks Percent Change from Baseline, Min [1]: −28.1, −28.1%
Weekly RP Attacks Percent Change from Baseline, Q1 [1]: −28.13, −28.13%
Weekly RP Attacks Percent Change from Baseline, Q3 [1]: −28.13, −28.13%
Weekly RP Attacks, Max [1]: 23.0, 23.0
Weekly RP Attacks, Mean [1]: 23.00
Weekly RP Attacks, Median [1]: 23.00
Weekly RP Attacks, Min [1]: 23.0, 23.0
Weekly RP Attacks, Q1 [1]: 23.00, 23.00
Weekly RP Attacks, Q3 [1]: 23.00, 23.00
Weekly RP Attacks Change from Baseline, Max [2]: −4.3
Weekly RP Attacks Change from Baseline, Mean [2]: −6.67
Weekly RP Attacks Change from Baseline, Median [2]: −6.67
Weekly RP Attacks Change from Baseline, Min [2]: −9.0
Weekly RP Attacks Change from Baseline, Q1 [2]: −9.00
Weekly RP Attacks Change from Baseline, Q3 [2]: −4.33
Weekly RP Attacks Percent Change from Baseline, Max [2]: −45.0%
Weekly RP Attacks Percent Change from Baseline, Mean [2]: −45.71%
Weekly RP Attacks Percent Change from Baseline, Median [2]: −45.71%
Weekly RP Attacks Percent Change from Baseline, Min [2]: −46.4%
Weekly RP Attacks Percent Change from Baseline, Q1 [2]: −46.43%
Weekly RP Attacks Percent Change from Baseline, Q3 [2]: −45.00%
Weekly RP Attacks, Max [2]: 11.0
Weekly RP Attacks, Mean [2]: 8.00
Weekly RP Attacks, Median [2]: 8.00
Weekly RP Attacks, Min [2]: 5.0
Weekly RP Attacks, Q1 [2]: 5.00
Weekly RP Attacks, Q3 [2]: 11.00
Weekly RP Attacks Change from Baseline, Max [3]: −4.3
Weekly RP Attacks Change from Baseline, Mean [3]: −7.44
Weekly RP Attacks Change from Baseline, Median [3]: −9.00
Weekly RP Attacks Change from Baseline, Min [3]: −9.0
Weekly RP Attacks Change from Baseline, Q1 [3]: −9.00
Weekly RP Attacks Change from Baseline, Q3 [3]: −4.33
Weekly RP Attacks Percent Change from Baseline, Max [3]: −28.1%
Weekly RP Attacks Percent Change from Baseline, Mean [3]: −39.85%
Weekly RP Attacks Percent Change from Baseline, Median [3]: −45.00%
Weekly RP Attacks Percent Change from Baseline, Min [3]: −46.4%
Weekly RP Attacks Percent Change from Baseline, Q1 [3]: −46.43%
Weekly RP Attacks Percent Change from Baseline, Q3 [3]: −28.13%
Weekly RP Attacks, Max [3]: 23.0
Weekly RP Attacks, Mean [3]: 13.00
Weekly RP Attacks, Median [3]: 11.00
Weekly RP Attacks, Min [3]: 5.0
Weekly RP Attacks, Q1 [3]: 5.00
Weekly RP Attacks, Q3 [3]: 23.00
Weekly RP Attacks Change from Baseline, Max (cilnidipine 10 mg): −9.0, −9.0
Weekly RP Attacks Change from Baseline, Mean (SD) (cilnidipine 10 mg): −9.00
Weekly RP Attacks Change from Baseline, Median (cilnidipine 10 mg): −9.00
Weekly RP Attacks Change from Baseline, Min (cilnidipine 10 mg): −9.0, −9.0
Weekly RP Attacks Change from Baseline, Q1 (cilnidipine 10 mg): −9.00, −9.00
Weekly RP Attacks Change from Baseline, Q3 (cilnidipine 10 mg): −9.00, −9.00
Weekly RP Attacks Percent Change from Baseline, Max (cilnidipine 10 mg): −28.1, −28.1%
Weekly RP Attacks Percent Change from Baseline, Mean (SD) (cilnidipine 10 mg): −28.13%
Weekly RP Attacks Percent Change from Baseline, Median (cilnidipine 10 mg): −28.13%
Weekly RP Attacks Percent Change from Baseline, Min (cilnidipine 10 mg): −28.1, −28.1%
Weekly RP Attacks Percent Change from Baseline, Q1 (cilnidipine 10 mg): −28.13, −28.13%
Weekly RP Attacks Percent Change from Baseline, Q3 (cilnidipine 10 mg): −28.13, −28.13%
Weekly RP Attacks, Max (cilnidipine 10 mg): 23.0, 23.0
Weekly RP Attacks, Mean (SD) (cilnidipine 10 mg): 23.00
Weekly RP Attacks, Median (cilnidipine 10 mg): 23.00
Weekly RP Attacks, Min (cilnidipine 10 mg): 23.0, 23.0
Weekly RP Attacks, Q1 (cilnidipine 10 mg): 23.00, 23.00
Weekly RP Attacks, Q3 (cilnidipine 10 mg): 23.00, 23.00
Weekly RP Attacks Change from Baseline, Max (cilnidipine 20 mg): −4.3
Weekly RP Attacks Change from Baseline, Mean (SD) (cilnidipine 20 mg): −6.67 (3.300)
Weekly RP Attacks Change from Baseline, Median (cilnidipine 20 mg): −6.67
Weekly RP Attacks Change from Baseline, Min (cilnidipine 20 mg): −9.0
Weekly RP Attacks Change from Baseline, Q1 (cilnidipine 20 mg): −9.00
Weekly RP Attacks Change from Baseline, Q3 (cilnidipine 20 mg): −4.33
Weekly RP Attacks Percent Change from Baseline, Max (cilnidipine 20 mg): −45.0%
Weekly RP Attacks Percent Change from Baseline, Mean (SD) (cilnidipine 20 mg): −45.71 (1.010) Percent
Weekly RP Attacks Percent Change from Baseline, Median (cilnidipine 20 mg): −45.71%
Weekly RP Attacks Percent Change from Baseline, Min (cilnidipine 20 mg): −46.4%
Weekly RP Attacks Percent Change from Baseline, Q1 (cilnidipine 20 mg): −46.43%
Weekly RP Attacks Percent Change from Baseline, Q3 (cilnidipine 20 mg): −45.00%
Weekly RP Attacks, Max (cilnidipine 20 mg): 11.0
Weekly RP Attacks, Mean (SD) (cilnidipine 20 mg): 8.00 (4.243)
Weekly RP Attacks, Median (cilnidipine 20 mg): 8.00
Weekly RP Attacks, Min (cilnidipine 20 mg): 5.0
Weekly RP Attacks, Q1 (cilnidipine 20 mg): 5.00
Weekly RP Attacks, Q3 (cilnidipine 20 mg): 11.00
Weekly RP Attacks Change from Baseline, Max [4]: −4.3
Weekly RP Attacks Change from Baseline, Mean (SD) [4]: −7.44 (2.694)
Weekly RP Attacks Change from Baseline, Median [4]: −9.00
Weekly RP Attacks Change from Baseline, Min [4]: −9.0
Weekly RP Attacks Change from Baseline, Q1 [4]: −9.00
Weekly RP Attacks Change from Baseline, Q3 [4]: −4.33
Weekly RP Attacks Percent Change from Baseline, Max [4]: −28.1%
Weekly RP Attacks Percent Change from Baseline, Mean (SD) [4]: −39.85 (10.180) Percent
Weekly RP Attacks Percent Change from Baseline, Median [4]: −45.00%
Weekly RP Attacks Percent Change from Baseline, Min [4]: −46.4%
Weekly RP Attacks Percent Change from Baseline, Q1 [4]: −46.43%
Weekly RP Attacks Percent Change from Baseline, Q3 [4]: −28.13%
Weekly RP Attacks, Max [4]: 23.0
Weekly RP Attacks, Mean (SD) [4]: 13.00 (9.165)
Weekly RP Attacks, Median [4]: 11.00
Weekly RP Attacks, Min [4]: 5.0
Weekly RP Attacks, Q1 [4]: 5.00
Weekly RP Attacks, Q3 [4]: 23.00
reduction in weekly attack frequency (primary endpoint) (cilnidipine 20 mg, 19% with placebo): 43%
reduction in weekly attack frequency, typical attacks (pooled cilnidipine monotherapy or cilnidipine plus tadalafil treated patients (n=7)): −31 to −40%
Attacks reduced (summary of data (Table S)): 43%_vs 23% with
